≈ marks a conversion by molar mass, not a printed value. Like-named read-outs stand apart in the source and are kept apart here.
Key:
[1] = system: Aspergillus fumigatus ATCC 204305; assay: MIC broth microdilution assay
Protocol: (§6) Test compound preparation: The test article was prepared as 100× stock solutions in DMSO, with concentrations ranging from 3.2 mg/ml to 0.0625 mg/ml (a two-fold dilution series over 10 points). The first dilution (3.2 mg/ml) was prepared by resuspending 0.5 mg of each test article in 156.25 μl of DMSO. The stock is then serially diluted by two-fold increments to obtain the desired concentration range.
(§7) Inoculum preparation: For fungal strains, the inoculum was prepared as follows. From an overnight culture in Yeast Media broth, cell density was adjusted in 0.85% saline to 0.5 McFarland. This procedure yielded a stock suspension of about 5×10^6 cells/ml. Following thorough vortexing, a working suspension was prepared by diluting the stock 1:50 in RPMI 1640, and then further diluting it 1:20 with RPMI 1640 to obtain the 2× test inoculum (about 5×10^3 cells/ml). For filamentous fungi, the inoculum was prepared as follows. […]
(§8) 50 μl of the final cell dilution (yeast, filamentous fungi or bacteria) of each indicator strain was added to each corresponding well of the microplate containing 50 μl of diluted drug or media alone. […] MIC readings were determined at 24 and 48 hrs for the Candida and Aspergillus species, and at 48 and 72 hrs for Cryptococcus neoformans. MIC readout for each indicator was determined as the lowest concentration of test compound resulting in total absence of growth.

[2] = system: Cryptococcus neoformans ATCC 32045; assay: MIC broth microdilution assay
Protocol: as §6, §7, §8

[3] = system: HOP92/non-small cell lung carcinoma; assay: NCI in vitro antiproliferative screen (SRB, GI50); assay type: cell-based, human
Protocol: (§1) In Vitro antipoliferative study of Compound 2a was performed by the National Cancer Institute (National Institutes of Health, Bethesda, Md., USA) against a panel of cancer cell lines in order to determine the concentrations needed to obtain a 50% inhibition of cell proliferation (IC50). The operation of this unique screen utilizes 60 different human tumor cell lines, representing leukemia, melanoma, and cancers of the lung, colon, brain, ovary, breast prostate and kidney. Compound 2(a) was provided as a lyophilized powder with an estimated purity of 90+%. The compound was stored at −20° C. until day of use.
(§2) The human tumor cell lines of the cancer-screening panel were grown in RPMI 1640 medium containing 5% fetal bovine serum and 2 mM L-glutamine. For a typical screening experiment, cells were inoculated into 96 well microtiter plates in 100 μl at plating densities ranging from 5000 to 40,000 cells/well depending on the doubling time of individual cell lines (Table 8). After cell inoculation, the microtiter plates were incubated at 37° C., under 5% CO2, 95% air and 100% relative humidity for 24 hours prior to addition of the experimental drugs.
(§3) After 24 hours, two plates of each cell line were fixed in situ with TCA, to represent a measurement of the cell population for each cell line at the time of drug addition (Tz). Compound 2(a) was solubilized in dimethyl sulfoxide at 400-fold the desired final maximum test concentration and stored frozen prior to use. At the time of drug addition, an aliquot of frozen concentrate was thawed and diluted to twice the desired final maximum test concentration with complete medium containing 50 μg/ml gentamicin. Additional four, serial dilutions were made to provide a total of five drug concentrations plus control. Aliquots of 100 μl of these different drug dilutions were added to the appropriate microtiter wells already containing 100 μl of medium, resulting in the required final drug concentrations (2.5×10^−5 M to 2.5×10^−9 M).
(§4) Following drug addition, the plates were incubated for an additional 48 hours at 37° C., 5% CO2, 95% air, and 100% relative humidity. For adherent cells, the assay was terminated by the addition of cold TCA. Cells were fixed in situ by the gentle addition of 50 μl of cold 50% (w/v) TCA (final concentration, 10% TCA) and incubation for 60 minutes at 4° C. The supernatant was discarded, and the plates were washed five times with tap water and air-dried. Sulforhodamine B (SRB) solution (100 μl) at 0.4% (w/v) in 1% acetic acid was added to each well, and plates were incubated for 10 minutes at room temperature. After staining, unbound dye was removed by washing five times with 1% acetic acid and the plates were air-dried. Bound stain was subsequently solubilized with 10 mM trizma base, and the absorbance was read on an automated plate reader at a wavelength of 515 nm. For suspension cells, the methodology was the same except that the assay was terminated by fixing settled cells at the bottom of the wells by gently adding 50 μl of 80% TCA (final concentration, 16% TCA).
(§5) The growth inhibitory power of compound 2(a) was measured by NCl utilizing the GI50 value, rather than the classical IC50 value. The GI50 value emphasizes the correction for the cell count at time zero and, using the seven adsorbance measurements [time zero (Tz), control growth (C), and the test growth in the presence of drug at each of the five concentration levels (Ti)], GI50 is calculated as [(Ti−Tz)/(C−Tz)×100=−50. which is the drug concentration resulting in a 50% reduction in the net protein increase (as measured by SRB staining) in control cells during the drug incubation.

SN12C/renal carcinoma = assay: NCI in vitro antiproliferative screen (SRB, GI50); assay type: cell-based, human
Protocol: as §1, §2, §3, §4, §5

HCC2998/colon carcinoma = assay: NCI in vitro antiproliferative screen (SRB, GI50); assay type: cell-based, human
Protocol: as §1, §2, §3, §4, §5

[4] = system: Candida albicans ATCC 10231; assay: MIC broth microdilution assay
Protocol: as §6, §7, §8

[5] = system: Candida glabrata LSPQ 0250; assay: MIC broth microdilution assay; conditions: Nakaseomyces glabratus
Protocol: as §6, §7, §8

[6] = system: 60 different human tumor cell lines; assay: NCI in vitro antiproliferative screen, 60 human tumor cell lines (SRB, GI50); assay type: cell-based
Protocol: as §1, §2, §3, §4, §5

Compound `CC(C=CCCC=CC=CC=CC=CC(=O)NC1=C(O)CCC1=O)C(O)C(C)C(O)C=CC=CC=CC=CC=CCC(OC1OC(C)C(O)C(O)C1O)C(C)C(=O)CC(O)CC(O)CC(O)C=CCC(O)CC(O)CC(O)CC(O)C=CCC(O)CC(O)CCCN` (centres unmarked) [Compound 2(a), 56-Amino-15,17,33,35,37,41,43,45,47,51,53-undecahydroxy-14,16,30-trimethyl-31-oxo-29-(3,4,5-trihydroxy-6-methyl-tetrahydro-pyran-2-yloxy)-hexapentaconta-2,4,6,8,12,18,20,22,24,26,38,48-dodecaenoic acid (2-hydroxy-5-oxo-cyclopent-1-enyl)-amide] has an MIC ([1]; ATCC204305, 24 h) of 16 µg/mL (≈ 12.3 µM), an MIC ([1]; ATCC204305, 48 h) of 16 µg/mL (≈ 12.3 µM) and an MIC ([2]; ATCC32045, 48 h) of 2 µg/mL (≈ 1.54 µM). The MIC ([2]; ATCC32045, 72 h) was 4 µg/mL (≈ 3.08 µM), the “GI50 level” value ([3]; HOP92/non-small cell lung carcinoma, 48 hours) was “nanomolar or picomolar level” and the GI50 ([3]; Homo sapiens, HOP-92, Non-small cell lung cancer, 48 h) was 0.0977 µM. The GI50 (SN12C/renal carcinoma; Homo sapiens, SN12C, Renal cancer, 48 h) was 0.138 µM, the “GI50 level” value (SN12C/renal carcinoma; SN12C/renal carcinoma, 48 hours) was “nanomolar or picomolar level” and the “GI50 level” value (HCC2998/colon carcinoma; HCC2998/colon carcinoma, 48 hours) was “nanomolar or picomolar level”. It also gave a GI50 (HCC2998/colon carcinoma; Homo sapiens, HCC-2998, Colon cancer, 48 h) of 0.0603 µM, an MIC ([4]; ATCC10231, 24 h) of 4 µg/mL (≈ 3.08 µM) and an MIC ([4]; ATCC10231, 48 h) of 4 µg/mL (≈ 3.08 µM). The MIC ([5]; LSPQ0250, 24 h) was 4 µg/mL (≈ 3.08 µM), the MIC ([5]; LSPQ0250, 48 h) was 8 µg/mL (≈ 6.17 µM) and the GI50 ([6]; 786-0, 48 h, 786-0, Renal cancer, read-out: GI50) was 3.07 µM. The GI50 ([6]; 48 h, MDA-MB-, Breast cancer) was 3.38 µM, the GI50 ([6]; 48 h, PC-3, Prostate cancer, read-out: GI50) was 2.66 µM and the GI50 ([6]; 48 h, all cell lines of the NCI screening panel, 48 hours drug incubation) was under 10 µM. For the same compound, the GI50 ([6]; A498, 48 h, A498, Renal cancer, read-out: GI50) was 4.82 µM, the GI50 ([6]; A549, 48 h, A549/ATCC, Non-small cell lung cancer, read-out: GI50) was 4.09 µM and the GI50 ([6]; ACHN, 48 h, ACHN, Renal cancer, read-out: GI50) was 2.96 µM. The GI50 ([6]; BT-549, 48 h, BT-549, Breast cancer, read-out: GI50) was 4.59 µM, the GI50 ([6]; CAKI-1, 48 h, CAKI-1, Renal cancer, read-out: GI50) was 2.99 µM and the GI50 ([6]; COLO 205, 48 h, COLO 205, Colon cancer, read-out: GI50) was 5 µM. The GI50 ([6]; DU-145, 48 h, DU-145, Prostate cancer, read-out: GI50) was 3.78 µM, the GI50 ([6]; EKVX, 48 h, EKVX, Non-small cell lung cancer, read-out: GI50) was 5.87 µM and the GI50 ([6]; HCT-15, 48 h, HCT-15, Colon cancer, read-out: GI50) was 3.25 µM. For the same compound, the GI50 ([6]; HCT-116, 48 h, HCT-116, Colon cancer, read-out: GI50) was 4.18 µM, the GI50 ([6]; HOP-62, 48 h, HOP-62, Non-small cell lung cancer, read-out: GI50) was 6.83 µM and the GI50 ([6]; HT-29, 48 h, HT29, Colon cancer, read-out: GI50) was 6.36 µM. The GI50 ([6]; IGROV-1, 48 h, IGROV1, Ovarian cancer, read-out: GI50) was 2.95 µM, the GI50 ([6]; K562, 48 h, K-562, Leukemia, read-out: GI50) was 9.18 µM and the GI50 ([6]; KM12, 48 h, KM12, Colon cancer, read-out: GI50) was 2.76 µM. It also gave a GI50 ([6]; LOX IMVI, 48 h, LOX IMVI, Melanoma, read-out: GI50) of 3.73 µM, a GI50 ([6]; M14, 48 h, M14, Melanoma, read-out: GI50) of 4.15 µM and a GI50 ([6]; MCF7, 48 h, MCF7, Breast cancer, read-out: GI50) of 4.22 µM. For the same compound, the GI50 ([6]; MDA-MB-435, 48 h, MDA-MB-435, Breast cancer, read-out: GI50) was 3.26 µM, the GI50 ([6]; MOLT-4, 48 h, MOLT-4, Leukemia, read-out: GI50) was 5.57 µM and the GI50 ([6]; Malme-3M, 48 h, MALME-3M, Melanoma, read-out: GI50) was 2.4 µM. For the same compound, the GI50 ([6]; NCI-H23, 48 h, NCI-H23, Non-small cell lung cancer, read-out: GI50) was 4.25 µM, the GI50 ([6]; NCI-H226, 48 h, NCI-H226, Non-small cell lung cancer, read-out: GI50) was 3.1 µM and the GI50 ([6]; NCI-H322M, Non-small cell lung cancer, 48 h, read-out: GI50) was 3.48 µM. For the same compound, the GI50 ([6]; NCI-H460, 48 h, NCI-H460, Non-small cell lung cancer, read-out: GI50) was 3.83 µM, the GI50 ([6]; NCI-H522, 48 h, NCI-H522, Non-small cell lung cancer, read-out: GI50) was 2.8 µM and the GI50 ([6]; NCI/ADR-RES, 48 h, NCI/ADR-RES, Breast cancer, read-out: GI50) was 4.76 µM. The GI50 ([6]; OVCAR-3, 48 h, OVCAR-3, Ovarian cancer, read-out: GI50) was 3.4 µM, the GI50 ([6]; OVCAR-4, 48 h, OVCAR-4, Ovarian cancer, read-out: GI50) was 4.48 µM and the GI50 ([6]; OVCAR-5, 48 h, OVCAR-5, Ovarian cancer, read-out: GI50) was 4 µM. The GI50 ([6]; OVCAR-8, 48 h, OVCAR-8, Ovarian cancer, read-out: GI50) was 4.34 µM, the GI50 ([6]; RXF 393, 48 h, RXF 393, Renal cancer, read-out: GI50) was 1.2 µM and the GI50 ([6]; SF-268, 48 h, SF-268, CNS cancer, read-out: GI50) was 3.64 µM. The GI50 ([6]; SF-295, 48 h, SF-295, CNS cancer, read-out: GI50) was 3.91 µM, the GI50 ([6]; SK-MEL-2, 48 h, SK-MEL-2, Melanoma, read-out: GI50) was 4.34 µM and the GI50 ([6]; SK-MEL-5, 48 h, SK-MEL-5, Melanoma, read-out: GI50) was 4.16 µM. For the same compound, the GI50 ([6]; SK-MEL-28, 48 h, SK-MEL-28, Melanoma, read-out: GI50) was 6.75 µM, the GI50 ([6]; SK-OV-3, 48 h, SK-OV-3, Ovarian cancer, read-out: GI50) was 7.94 µM and the GI50 ([6]; SNB-19, 48 h, SNB-19, CNS cancer, read-out: GI50) was 5.58 µM. The GI50 ([6]; SNB-75, 48 h, SNB-75, CNS cancer, read-out: GI50) was 3.87 µM, the GI50 ([6]; SW-620, 48 h, SW-620, Colon cancer, read-out: GI50) was 5.35 µM and the GI50 ([6]; T47D, 48 h, T-47D, Breast cancer, read-out: GI50) was 6 µM. It also gave a GI50 ([6]; TK-10, 48 h, TK-10, Renal cancer, read-out: GI50) of 3.32 µM, a GI50 ([6]; U-251, 48 h, U251, CNS cancer, read-out: GI50) of 3.65 µM and a GI50 ([6]; UACC-62, 48 h, UACC-62, Melanoma, read-out: GI50) of 2.68 µM. It also gave a GI50 ([6]; UACC-257, 48 h, UACC-257, Melanoma, read-out: GI50) of 3.74 µM and a GI50 ([6]; UO-31, 48 h, UO-31, Renal cancer, read-out: GI50) of 3.65 µM.
